Reference: BindingDB's records for doi:10.1021/acs.jmedchem.8b00401 (2019)

Tests used:
[1] = target: Sodium-dependent dopamine transporter (Homo sapiens, UniProt Q01959); assay: Displacement of [3H]-WIN35428 from recombinant human DAT expressed in HEK cell membranes after 90 mins by scintillation counting method
D(3) dopamine receptor = D(3) dopamine receptor (Homo sapiens, UniProt P35462); assay: Displacement of [3H]-N-methylspiperone from recombinant human D3R expressed in HEK cell membranes after 90 mins by scintillation counting method
Sequence of D(3) dopamine receptor (P35462 as listed by the source): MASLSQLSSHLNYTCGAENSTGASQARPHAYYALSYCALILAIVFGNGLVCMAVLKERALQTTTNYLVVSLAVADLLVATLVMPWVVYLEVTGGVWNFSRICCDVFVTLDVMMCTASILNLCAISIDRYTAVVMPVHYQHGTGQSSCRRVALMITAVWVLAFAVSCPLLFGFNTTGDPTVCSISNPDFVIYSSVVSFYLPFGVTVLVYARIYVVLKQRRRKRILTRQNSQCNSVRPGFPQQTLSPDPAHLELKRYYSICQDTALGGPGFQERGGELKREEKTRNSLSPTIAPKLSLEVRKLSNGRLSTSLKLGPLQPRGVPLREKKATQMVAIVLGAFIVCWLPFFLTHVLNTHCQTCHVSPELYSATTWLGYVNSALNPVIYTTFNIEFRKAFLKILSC

Sequence of Sodium-dependent dopamine transporter (Q01959 whole entry): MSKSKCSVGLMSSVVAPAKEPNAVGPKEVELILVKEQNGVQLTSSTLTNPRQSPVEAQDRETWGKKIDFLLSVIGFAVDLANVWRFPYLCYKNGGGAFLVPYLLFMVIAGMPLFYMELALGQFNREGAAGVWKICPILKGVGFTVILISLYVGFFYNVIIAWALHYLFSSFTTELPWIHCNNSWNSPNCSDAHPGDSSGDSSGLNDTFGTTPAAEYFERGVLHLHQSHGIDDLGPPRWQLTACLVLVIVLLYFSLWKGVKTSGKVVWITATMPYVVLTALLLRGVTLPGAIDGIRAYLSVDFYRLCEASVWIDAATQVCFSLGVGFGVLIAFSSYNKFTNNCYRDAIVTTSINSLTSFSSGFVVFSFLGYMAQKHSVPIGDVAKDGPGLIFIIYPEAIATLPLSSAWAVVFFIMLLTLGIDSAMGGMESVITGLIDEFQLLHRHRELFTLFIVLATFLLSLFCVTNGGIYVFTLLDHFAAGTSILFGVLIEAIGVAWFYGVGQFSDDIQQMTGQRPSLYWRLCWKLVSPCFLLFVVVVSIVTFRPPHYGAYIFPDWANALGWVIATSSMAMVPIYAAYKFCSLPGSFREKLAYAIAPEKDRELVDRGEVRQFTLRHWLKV

## CCCCCCCCCCC[C@@H]1CCN[C@H](C(=O)NCC(O)CO)C1 (some centres not stated)
[1]
  Ki: 1.8 µM
D(3) dopamine receptor
  Ki: 4.7 µM
